# Laboratory results as given in patent US8232273B2, “Heterocyclic compounds and methods of use” (Genentech, Inc., priority 2008, dated 2012).
# pIC50, pKi: −log10 of the molar value. Where two headings read alike, the source gives them in different places.
# What was measured:
# [1] = target: T1, Bcl-xL (GST-Bcl-xL) (Homo sapiens, UniProt Q07817); assay: TR-FRET binding assay, competition with F-Bak for the Bcl-xL binding site
# [2] = target: T1, Bcl-xL (GST-Bcl-xL); assay: AlphaScreen Bcl-xL binding assay, competition with biotinylated Bim peptide; design: made in house; settings: values listed in the order of Table 1; read-out: Alphascreen results (IC50) against the Bcl-xL protein
# In short: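 Acceptor beads with GST-Bcl-xL were combined with donor beads carrying biotinylated Bim peptide after each bead mix was preincubated 30 min at room temperature. Compounds in DMSO, 2-fold serially diluted, were incubated 30 min at room temperature before donor addition, with duplicate plates. Percent inhibition was taken against no-protein and DMSO controls, and IC50 was calculated.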
# [3] = values listed in the order of Table 1, read-out: TR-FRET assay results (Ki), Bcl-xL
# T1 sequence (Q07817 whole entry, species assumed): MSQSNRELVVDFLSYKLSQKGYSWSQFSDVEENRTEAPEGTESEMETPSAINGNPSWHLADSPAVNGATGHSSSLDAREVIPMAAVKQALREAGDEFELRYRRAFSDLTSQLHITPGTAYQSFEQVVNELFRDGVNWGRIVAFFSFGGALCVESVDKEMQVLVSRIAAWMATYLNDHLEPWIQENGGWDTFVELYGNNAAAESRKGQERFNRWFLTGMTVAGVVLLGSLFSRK
Compound,"pKi [1, 3]",pIC50 [2],pKi ([1]; with 1% human serum (HS))
"O=C(Nc1nc2ccccc2s1)c1cccc2c1CN(c1nc(C(=O)O)c(CCCOc3ccc(-n4ncc5cncnc54)cc3)s1)CC2 [Example 21, 5-(3-(4-(1H-pyrazolo[3,4-d]pyrimidin-1-yl)phenoxy)propyl)-2-(8-(benzo[d]thiazol-2-ylcarbamoyl)-3,4-dihydroisoquinolin-2(1H)-yl)thiazole-4-carboxylic acid]",10.30,9.52,
"CN(C)CC#Cc1ccc(OCCCc2sc(N3CCc4cccc(C(=O)Nc5nc6ccccc6s5)c4C3)nc2C(=O)O)c(Cl)c1 [Compound 119, 2-(8-(benzo[d]thiazol-2-ylcarbamoyl)-3,4-dihydroisoquinolin-2(1H)-yl)-5-(3-(2-chloro-4-(3-(dimethylamino)prop-1-ynyl)phenoxy)propyl)thiazole-4-carboxylic acid]",10.40,9.70,
"Nc1cccc(OCCCc2sc(N3CCc4cccc(C(=O)Nc5nc6ccccc6s5)c4C3)nc2C(=O)O)c1 [Example 9, 5-(3-(3-aminophenoxy)propyl)-2-(8-(benzo[d]thiazol-2-ylcarbamoyl)-3,4-dihydroisoquinolin-2(1H)-yl)thiazole-4-carboxylic acid]",10.15,9.10,
"O=C(O)c1csc(N2CCc3cccc(C(=O)Nc4nc5ccccc5s4)c3C2)n1 [Example 1, 2-(8-(Benzo[d]thiazol-2-ylcarbamoyl)-3,4-dihydroisoquinolin-2(1H)-yl)thiazole-4-carboxylic acid]",7.11,7.00,
"CN(C)CC#Cc1ccc(OCCCc2ccc(N3CCc4cccc(C(=O)Nc5nc6ccccc6s5)c4C3)nc2C(=O)O)cc1 [Compound 133, 6-(8-(benzo[d]thiazol-2-ylcarbamoyl)-3,4-dihydroisoquinolin-2(1H)-yl)-3-(3-(4-(3-(dimethylamino)prop-1-ynyl)phenoxy)propyl)picolinic acid]",10.64,8.92,
"O=C(Nc1nc2ccccc2s1)c1cccc2c1CN(c1nc(C(=O)O)c(CCCOc3ccc4nc(N5CCN(c6ccccn6)CC5)sc4c3)s1)CC2 [Example 23, 2-(8-(benzo[d]thiazol-2-ylcarbamoyl)-3,4-dihydroisoquinolin-2(1H)-yl)-5-(3-(2-(4-(pyridin-2-yl)piperazin-1-yl)benzo[d]thiazol-6-yloxy)propyl)thiazole-4-carboxylic acid]",8.70,9.00,
O=C(Nc1nc2ccccc2s1)c1cccc2c1CN(c1ccc(CCCOc3ccnc(Cl)c3)c(C(=O)O)n1)CC2 [Example 109],9.22,7.97,
"O=C(Nc1nc2ccccc2s1)c1cccc2c1CN(c1nc(C(=O)O)c(CN3CCC3c3ccccc3)s1)CC2 (stereo not shown) [Example 71, 2-[8-(Benzothiazol-2-ylcarbamoyl)-3,4-dihydro-1H-isoquinolin-2-yl]-5-(2-phenyl-azetidin-1-ylmethyl)-thiazole-4-carboxylic acid]",6.76,6.24,
"CN(C)CCOc1cnc(-c2ccc(OCCCc3ccc(N4CCc5cccc(C(=O)Nc6nc7ccccc7s6)c5C4)nc3C(=O)O)cc2)nc1 [Example 112, 6-(8-(benzo[d]thiazol-2-ylcarbamoyl)-3,4-dihydroisoquinolin-2(1H)-yl)-3-(3-(4-(5-(2-(dimethylamino)ethoxy)pyrimidin-2-yl)phenoxy)propyl)picolinic acid]",9.70,9.35,
"O=C(Nc1nc2ccccc2s1)c1cccc2c1CN(c1nc(C(=O)O)c(CN3CCC(c4ccccc4)CC3)s1)CC2 [Example 63, 2-(8-(benzo[d]thiazol-2-ylcarbamoyl)-3,4-dihydroisoquinolin-2(1H)-yl)-5-((4-phenylpiperidin-1-yl)methyl)thiazole-4-carboxylic acid]",6.61,6.24,
"O=C(Nc1nc2ccccc2s1)c1cccc2c1CN(c1nc(C(=O)O)c(C#CCO)s1)CC2 [Example 14, 2-(8-(Benzo[d]thiazol-2-ylcarbamoyl)-3,4-dihydroisoquinolin-2(1H)-yl)-5-(3-hydroxyprop-1-ynyl)thiazole-4-carboxylic acid]",8.22,7.70,
"CN(C)c1cccc(OCCCc2sc(N3CCc4cccc(C(=O)Nc5nc6ccccc6s5)c4C3)nc2C(=O)O)c1 [Example 11, 2-(8-(benzo[d]thiazol-2-ylcarbamoyl)-3,4-dihydroisoquinolin-2(1H)-yl)-5-(3-(3-(dimethylamino)phenoxy)propyl)thiazole-4-carboxylic acid]",10.00,8.70,
"O=C(Nc1nc2ccccc2s1)c1cccc2c1CN(c1nc(C(=O)O)c(CCCOc3ccc(C4(c5ccccc5)CCCC4)cc3)s1)CC2 [Example 24, 2-(8-(benzo[d]thiazol-2-ylcarbamoyl)-3,4-dihydroisoquinolin-2(1H)-yl)-5-(3-(4-(1-phenylcyclopentyl)phenoxy)propyl)thiazole-4-carboxylic acid]",8.15,7.57,
"O=C(O)c1cccc(N2CCc3cccc(C(=O)Nc4nc5ccccc5s4)c3C2)n1 [Compound 120, 6-(8-(benzo[d]thiazol-2-ylcarbamoyl)-3,4-dihydroisoquinolin-2(1H)-yl)picolinic acid]",6.82,6.51,
"CN(C)CC#Cc1cc(F)c(OCCCc2sc(N3CCc4cccc(C(=O)Nc5nc6ccccc6s5)c4C3)nc2C(=O)O)cc1F [Example 118, 2-(8-(benzo[d]thiazol-2-ylcarbamoyl)-3,4-dihydroisoquinolin-2(1H)-yl)-5-(3-(4-(3-(dimethylamino)prop-1-ynyl)-2,5-difluorophenoxy)propyl)thiazole-4-carboxylic acid]",11.00,9.52,
"O=C(Nc1nc2ccccc2s1)c1cccc2c1CN(c1ccc(-c3ccccc3)c(C(=O)O)n1)CC2 [Compound 125, 6-(8-(benzo[d]thiazol-2-ylcarbamoyl)-3,4-dihydroisoquinolin-2(1H)-yl)-3-phenylpicolinic acid]",7.18,6.91,
"O=C(Nc1nc2ccccc2s1)c1cccc2c1CN(c1nc(C(=O)O)c(CCCOc3ccc(-n4cccn4)cc3)s1)CC2 [Example 48, 5-(3-(4-(1H-pyrazol-1-yl)phenoxy)propyl)-2-(8-(benzo[d]thiazol-2-ylcarbamoyl)-3,4-dihydroisoquinolin-2(1H)-yl)thiazole-4-carboxylic acid]",10.30,9.52,
"CN(C)CCCc1ccc(OCCCc2sc(N3CCc4cccc(C(=O)Nc5nc6ccccc6s5)c4C3)nc2C(=O)O)c(F)c1 [Example 103, 2-(8-(benzo[d]thiazol-2-ylcarbamoyl)-3,4-dihydroisoquinolin-2(1H)-yl)-5-(3-(4-(3-(dimethylamino)propyl)-2-fluorophenoxy)propyl)thiazole-4-carboxylic acid]",,9.40,11.22
"O=C(Nc1nc2ccccc2s1)c1cccc2c1CN(c1nc(C(=O)O)c(CCCn3ccc4cccnc43)s1)CC2 [Example 17, 5-(3-(1H-pyrrolo[2,3-b]pyridin-1-yl)propyl)-2-(8-(benzo[d]thiazol-2-ylcarbamoyl)-3,4-dihydroisoquinolin-2(1H)-yl)thiazole-4-carboxylic acid]",8.40,7.70,
"CN1CCC(Nc2ccc(OCCCc3ccc(N4CCc5cccc(C(=O)Nc6nc7ccccc7s6)c5C4)nc3C(=O)O)cc2)CC1 [Example 104, 6-(8-(Benzo[d]thiazol-2-ylcarbamoyl)-3,4-dihydroisoquinolin-2(1H)-yl)-3-(3-(4-(1-methylpiperidin-4-ylamino)phenoxy)propyl)picolinic acid]",9.00,8.02,
"CN(C)CC#Cc1ccc(OCCCc2sc(N3CCc4cccc(C(=O)Nc5nc6ccccc6s5)c4C3)nc2C(=O)O)c(F)c1 [Example 116, 2-(8-(benzo[d]thiazol-2-ylcarbamoyl)-3,4-dihydroisoquinolin-2(1H)-yl)-5-(3-(4-(3-(dimethylamino)prop-1-ynyl)-2-fluorophenoxy)propyl)thiazole-4-carboxylic acid]",11.40,9.70,
"O=C(Nc1nc2ccccc2s1)c1cccc2c1CN(c1nc(C(=O)O)c(CN3CCN(c4ccccc4)CC3)s1)CC2 [Example 62, 2-(8-(benzo[d]thiazol-2-ylcarbamoyl)-3,4-dihydroisoquinolin-2(1H)-yl)-5-((4-phenylpiperazin-1-yl)methyl)thiazole-4-carboxylic acid]",6.89,5.80,
"O=C(Nc1nc2ccccc2s1)c1cccc2c1CN(c1nc(C(=O)O)c(CCCO)s1)CC2 [Example 38, 2-(8-(Benzo[d]thiazol-2-ylcarbamoyl)-3,4-dihydroisoquinolin-2(1H)-yl)-5-(3-hydroxypropyl)thiazole-4-carboxylic acid]",8.30,8.30,
"O=C(Nc1nc2ccccc2s1)c1cccc2c1CN(c1nc(C(=O)O)c(CCCn3cnc4ccccc43)s1)CC2 [Example 15, 5-(3-(1H-benzo[d]imidazol-1-yl)propyl)-2-(8-(benzo[d]thiazol-2-ylcarbamoyl)-3,4-dihydroisoquinolin-2(1H)-yl)thiazole-4-carboxylic acid]",8.52,8.00,
"CN(C)CCOc1cccc(OCCCc2ccc(N3CCc4cccc(C(=O)Nc5nc6ccccc6s5)c4C3)nc2C(=O)O)c1 [Example 113, 6-(8-(benzo[d]thiazol-2-ylcarbamoyl)-3,4-dihydroisoquinolin-2(1H)-yl)-3-(3-(3-(2-(dimethylamino)ethoxy)phenoxy)propyl)picolinic acid]",9.70,9.05,
"O=C(Nc1nc2ccccc2s1)c1cccc2c1CN(c1nc(C(=O)O)c(CCCSc3ccncc3)s1)CC2 [Example 3, 2-(8-(benzo[d]thiazol-2-ylcarbamoyl)-3,4-dihydroisoquinolin-2(1H)-yl)-5-(3-(pyridin-4-ylthio)propyl)thiazole-4-carboxylic acid]",9.70,9.00,
